Measured values taken from patent US9681664B2, “Macrocyclic picolinamides as fungicides” (Dow Agrosciences LLC, priority 2012, dated 2017).

Columns and labels:
Venturia inaequalis = assay: Apple scab (VENTIN) disease control; assay type: in vivo; conditions: 24 h, High volume application, 1 Day Protectant, read-out: VENTIN 1 DP disease control
Procedure: Technical grades of materials were dissolved in acetone, which were then mixed with nine volumes of water containing 110 ppm Triton X-100. The fungicide solutions were applied onto wheat seedlings using an automated booth sprayer to run-off. All sprayed plants were allowed to air dry prior to further handling. All fungicides were evaluated using the aforementioned method for their activity vs. all target diseases. Wheat leaf blotch and brown rust activity were also evaluated using track spray applications, in which case the fungicides were formulated as EC formulations, containing 0.1% Trycol 5941 in the spray solutions. Apple seedlings (variety McIntosh) were grown in soil-less Metro mix, with one plant per pot. Seedlings with two expanding young leaves at the top (older leaves at bottom of the plants were trimmed) were used in the test. Plants were inoculated with a spore suspension of Venturia inaequalis 24 hr after fungicide treatment and kept in a 22° C. dew chamber with 100% RH for 48 hr, and then moved to a greenhouse set at 20° C. for disease to develop. Fungicide formulation, application and disease assessment on the sprayed leaves followed the procedures as described in the Example A.

[1] = test system: Blumeria graminis f. sp. tritici; Synonym: Erysiphe graminis f. sp. tritici; assay: Wheat powdery mildew (ERYSGT) disease control; assay type: in vivo; conditions: 24 h, 1 Day Protectant, high volume, read-out: Disease Control ERYSGT 1 DP
Procedure: Technical grades of materials were dissolved in acetone, which were then mixed with nine volumes of water containing 110 ppm Triton X-100. The fungicide solutions were applied onto wheat seedlings using an automated booth sprayer to run-off. All sprayed plants were allowed to air dry prior to further handling. All fungicides were evaluated using the aforementioned method for their activity vs. all target diseases. Wheat leaf blotch and brown rust activity were also evaluated using track spray applications, in which case the fungicides were formulated as EC formulations, containing 0.1% Trycol 5941 in the spray solutions. Wheat plants (variety Yuma) were grown from seed in a greenhouse in 50% mineral soil/50% soil-less Metro mix until the first leaf was fully emerged, with 7-10 seedlings per pot. These plants were inoculated by dusting with infected stock plants 24 hr after fungicide treatments. After inoculation the plants were kept in a greenhouse set at 20° C. for disease to develop. Fungicide formulation, application and disease assessment on the sprayed leaves followed the procedures as described in the Example A.

| Compound | pest or weed control at 100 ppm (Venturia inaequalis) | pest or weed control at 100 ppm [1] | melting point |
| --- | --- | --- | --- |
| C=C(C)CO[C@H]1CCC[C@H](NC(=O)c2nccc(OC)c2OCOC(C)=O)C(=O)O[C@@H](C)[C@@H]1OC [F250] | 80 to 100% |  |  |
| CCOCC(=O)OCOc1c(OC)ccnc1C(=O)N[C@H]1CCC[C@H](Oc2ccccc2)[C@@H](OC(=O)C2CCCC2)[C@H](C)OC1=O [F237] | 80 to 100% |  |  |
| COc1ccnc(C(=O)N[C@H]2CCC[C@H](OCC(C)C)[C@@H](OC)[C@H](C)OC2=O)c1OCOC(C)=O [F251] | < 0% |  |  |
| COc1ccnc(C(=O)N[C@H]2CCC[C@H](OCC(C)C)[C@@H](OC)[C@H](C)OC2=O)c1OCOC(=O)C(C)C [F254] | 80 to 100% |  |  |
| COc1ccnc(C(=O)N[C@H]2CCC[C@H](Oc3ccccc3)[C@@H](OC(=O)C3CC3)[C@H](C)OC2=O)c1OC(C)=O [F242] | 0 to 80% |  |  |
| COc1ccnc(C(=O)N[C@H]2CCC[C@H](Oc3ccccc3)[C@@H](Oc3ccccc3)[C@H](C)OC2=O)c1OCOC(C)=O [F20] | 0 to 80% | 0 to 80% |  |
| COc1ccnc(C(=O)N[C@H]2CCC[C@H](OCC(C)C)[C@@H](Oc3ccccc3)[C@H](C)OC2=O)c1OCOC(C)=O [F26] |  | 0 to 80% |  |
| COc1ccnc(C(=O)N[C@H]2CCC[C@H](OCC(C)C)[C@@H](OCC(C)C)[C@H](C)OC2=O)c1OCOC(=O)C(C)C [F37] |  | 0 to 80% |  |
| COc1ccnc(C(=O)N[C@H]2CCC[C@H](Oc3ccccc3)[C@@H](OCC(C)C)[C@H](C)OC2=O)c1OCOC(C)=O [F28] | 80 to 100% | 0 to 80% | 135 to 137 °C |
| CCCO[C@H]1CCC[C@H](NC(=O)c2nccc(OC)c2OC(C)=O)C(=O)O[C@@H](C)[C@@H]1Oc1ccccc1 [F141] | 0 to 80% |  |  |
| COc1ccnc(C(=O)N[C@H]2CCC[C@H](OCC(C)C)[C@@H](Oc3ccccc3)[C@H](C)OC2=O)c1OCOC(=O)C(C)C [F34] |  | 0 to 80% |  |
| COc1ccnc(C(=O)N[C@H]2CCC[C@H](Oc3ccccc3)[C@@H](Oc3ccccc3)[C@H](C)OC2=O)c1OCOC(=O)C(C)C [F36] |  | < 0% |  |
| C=C(C)CO[C@H]1CCC[C@H](NC(=O)c2nccc(OC)c2OCOC(=O)C(C)C)C(=O)O[C@@H](C)[C@@H]1OC [F253] | 80 to 100% |  |  |
| COc1ccnc(C(=O)N[C@H]2CCC[C@H](Oc3ccccc3)[C@@H](OC(=O)C3CC3)[C@H](C)OC2=O)c1OCOC(=O)C(C)C [F241] | 0 to 80% |  |  |
| COc1ccnc(C(=O)N[C@H]2CCC[C@H](Oc3ccccc3)[C@@H](OC)[C@H](C)OC2=O)c1OCOC(C)=O [F252] | 0 to 80% |  |  |
| COc1ccnc(C(=O)N[C@H]2CCC[C@H](OCC(C)C)[C@@H](OC3CCCC3)[C@H](C)OC2=O)c1OCOC(C)=O [F39] | 80 to 100% | 80 to 100% |  |
| COc1ccnc(C(=O)N[C@H]2CCC[C@H](OCC(C)C)[C@@H](OC3CCCC3)[C@H](C)OC2=O)c1OCOC(=O)C(C)C [F38] |  | 0 to 80% |  |
| COc1ccnc(C(=O)N[C@H]2CCC[C@H](OCc3ccccc3)[C@@H](Oc3ccccc3)[C@H](C)OC2=O)c1OCOC(C)=O [F31] |  | 0 to 80% | 49 to 55 °C |
| COc1ccnc(C(=O)N[C@H]2CCC[C@H](Oc3ccccc3)[C@@H](OC)[C@H](C)OC2=O)c1OCOC(=O)C(C)C [F255] | 80 to 100% |  |  |
| COc1ccnc(C(=O)N[C@H]2CCC[C@H](OCc3ccccc3)[C@@H](OCc3ccccc3)[C@H](C)OC2=O)c1OCOC(C)=O [F30] | 80 to 100% | < 0% | 42 to 52 °C |
| COc1ccnc(C(=O)N[C@H]2CCC[C@H](Oc3ccccc3)[C@@H](OCC(C)C)[C@H](C)OC2=O)c1OCOC(=O)C(C)C [F35] |  | 0 to 80% |  |
| COc1ccnc(C(=O)N[C@H]2CCC[C@H](OCC(C)C)[C@@H](OCC(C)C)[C@H](C)OC2=O)c1OCOC(C)=O [F29] | 80 to 100% | 80 to 100% |  |
